Measured values as given in ChEMBL document CHEMBL1697731, “Cheminformatics analysis of assertions mined from literature that describe drug-induced liver injury in different species” (Chem Res Toxicol, 2010).

Experiments:
Hepatotoxicity [1] = assay: Literature-mined compound from Fourches et al multi-species drug-induced liver injury (DILI) dataset, effect in humans; details: human
Hepatotoxicity [2] = assay: Literature-mined compound from Fourches et al multi-species drug-induced liver injury (DILI) dataset, effect in rodents; details: rodentia
Hepatotoxicity [3] = assay: Literature-mined compound from Fourches et al multi-species drug-induced liver injury (DILI) dataset, effect in non-rodents

Compound	Hepatotoxicity (Hepatotoxicity [1])	Hepatotoxicity (Hepatotoxicity [2])	Hepatotoxicity (Hepatotoxicity [3])
Cn1c(=O)c2c(ncn2C)n(C)c1=O [CAFFEINE]	drug-induced liver injury reported	drug-induced liver injury reported	no drug-induced liver injury reported
C=C1/C(=C\C=C2/CCC[C@]3(C)[C@@H]([C@H](C)CCCC(C)(C)O)CC[C@@H]23)C[C@@H](O)C[C@@H]1O [CALCITRIOL]	drug-induced liver injury reported	drug-induced liver injury reported	no drug-induced liver injury reported
CC[C@@]1(O)C(=O)OCc2c1cc1n(c2=O)Cc2cc3ccccc3nc2-1 [CAMPTOTHECIN]	drug-induced liver injury reported	drug-induced liver injury reported	no drug-induced liver injury reported
CCOc1nc2cccc(C(=O)OC(C)OC(=O)OC3CCCCC3)c2n1Cc1ccc(-c2ccccc2-c2nnn[nH]2)cc1 (stereo unspecified) [CANDESARTAN CILEXETIL]	drug-induced liver injury reported	drug-induced liver injury reported	no drug-induced liver injury reported
C=C(C)[C@@H]1CCC(C)=C[C@H]1c1c(O)cc(CCCCC)cc1O [CANNABIDIOL]	drug-induced liver injury reported	drug-induced liver injury reported	no drug-induced liver injury reported
CCCCCOC(=O)Nc1nc(=O)n([C@@H]2O[C@H](C)[C@@H](O)[C@H]2O)cc1F [CAPECITABINE]	drug-induced liver injury reported	drug-induced liver injury reported	no drug-induced liver injury reported
COc1cc(CNC(=O)CCCC/C=C/C(C)C)ccc1O [CAPSAICIN]	drug-induced liver injury reported	drug-induced liver injury reported	no drug-induced liver injury reported
C[C@H](CS)C(=O)N1CCC[C@H]1C(=O)O [CAPTOPRIL]	drug-induced liver injury reported	drug-induced liver injury reported	no drug-induced liver injury reported
C[N+](C)(C)CCOC(N)=O.[Cl-] [CARBACHOL]	no drug-induced liver injury reported	drug-induced liver injury reported	no drug-induced liver injury reported
NC(=O)N1c2ccccc2C=Cc2ccccc21 [CARBAMAZEPINE]	drug-induced liver injury reported	drug-induced liver injury reported	no drug-induced liver injury reported
CNC(=O)Oc1cccc2ccccc12 [CARBARIL]	no drug-induced liver injury reported	drug-induced liver injury reported	no drug-induced liver injury reported
CC1(C)S[C@@H]2[C@H](NC(=O)C(C(=O)[O-])c3ccccc3)C(=O)N2[C@H]1C(=O)[O-].[Na+].[Na+] (stereo partly specified) [CARBENICILLIN DISODIUM]	drug-induced liver injury reported	no drug-induced liver injury reported	no drug-induced liver injury reported
CC1(C)[C@@H](OC(=O)CCC(=O)O)CC[C@]2(C)[C@H]3C(=O)C=C4[C@@H]5C[C@@](C)(C(=O)O)CC[C@]5(C)CC[C@@]4(C)[C@]3(C)CC[C@@H]12 [CARBENOXOLONE]	no drug-induced liver injury reported	drug-induced liver injury reported	no drug-induced liver injury reported
CCOC(=O)n1ccn(C)c1=S [CARBIMAZOLE]	drug-induced liver injury reported	no drug-induced liver injury reported	no drug-induced liver injury reported
CCCCNC(=O)NS(=O)(=O)c1ccc(N)cc1 [CARBUTAMIDE]	no drug-induced liver injury reported	drug-induced liver injury reported	no drug-induced liver injury reported
CC(C)c1ccc(C(=O)NC(=N)N)cc1S(C)(=O)=O [CARIPORIDE]	no drug-induced liver injury reported	drug-induced liver injury reported	no drug-induced liver injury reported
CCCC(C)(COC(N)=O)COC(=O)NC(C)C (stereo unspecified) [CARISOPRODOL]	no drug-induced liver injury reported	drug-induced liver injury reported	no drug-induced liver injury reported
O=NN(CCCl)C(=O)NCCCl [CARMUSTINE]	drug-induced liver injury reported	drug-induced liver injury reported	no drug-induced liver injury reported
C[N+](C)(C)CC(O)CC(=O)[O-] (stereo unspecified) [CARNITINE]	drug-induced liver injury reported	drug-induced liver injury reported	drug-induced liver injury reported
CC(C(=O)O)c1ccc2c(c1)[nH]c1ccc(Cl)cc12 (stereo unspecified) [CARPROFEN]	no drug-induced liver injury reported	no drug-induced liver injury reported	drug-induced liver injury reported
COc1ccccc1OCCNCC(O)COc1cccc2[nH]c3ccccc3c12 (stereo unspecified) [CARVEDILOL]	drug-induced liver injury reported	drug-induced liver injury reported	no drug-induced liver injury reported
Oc1cc(O)c2c(c1)O[C@H](c1ccc(O)c(O)c1)[C@@H](O)C2 [CATECHIN]	drug-induced liver injury reported	drug-induced liver injury reported	drug-induced liver injury reported
N[C@@H](C(=O)N[C@@H]1C(=O)N2C(C(=O)O)=C(Cl)CS[C@H]12)c1ccccc1 [CEFACLOR ANHYDROUS]	drug-induced liver injury reported	no drug-induced liver injury reported	no drug-induced liver injury reported
CC1=C(C(=O)O)N2C(=O)[C@@H](NC(=O)[C@H](N)c3ccc(O)cc3)[C@H]2SC1 [CEFADROXIL]	drug-induced liver injury reported	no drug-induced liver injury reported	no drug-induced liver injury reported
Cc1nnc(SCC2=C(C(=O)O)N3C(=O)[C@@H](NC(=O)Cn4cnnn4)[C@H]3SC2)s1 [CEFAZOLIN]	drug-induced liver injury reported	drug-induced liver injury reported	no drug-induced liver injury reported
C=CC1=C(C(=O)O)N2C(=O)[C@@H](NC(=O)/C(=N\OCC(=O)O)c3csc(N)n3)[C@H]2SC1 [CEFIXIME]	drug-induced liver injury reported	no drug-induced liver injury reported	no drug-induced liver injury reported
CCN1CCN(C(=O)N[C@@H](C(=O)N[C@@H]2C(=O)N3C(C(=O)O)=C(CSc4nnnn4C)CS[C@H]23)c2ccc(O)cc2)C(=O)C1=O [CEFOPERAZONE]	drug-induced liver injury reported	drug-induced liver injury reported	no drug-induced liver injury reported
